For the test, the system named is KRAS PDC multicell spheroid viability. Nature of the test: Anticancer human tumor 521955-158-R6-J3-PDC patient-derived pancreatic carcinoma cell line growth inhibition [KRAS2]. The conditions noted are these: for viability, T/C: stronger effect = lower value. An excerpt:
Multicellular complex tumor spheroid response to RAS pathway inhibitors in combination with a targeted agents in patient-derived cell lines with oncogenic KRAS variants from multiple cancer types
A high-throughput screen of multi-cell type tumor spheroids was designed to identify active combinations of targeted small molecules and KRAS pathway inhibitors. Complex spheroids include a stromal component modeled by human endothelial cells (HUVEC) and fibroblasts modeled by human mesenchymal stem cells (MSCs). The concentration ranges selected for each drug and investigational agent were based upon clinically achievable concentrations if the clinical Cmax of the agent was known.
Compounds. The drugs and investigational agents: BI-3406 (NSC825286), BAY-293 (NSC824723), batoprotafib (TNO155; NSC825523), sotorasib (AMG 510; NSC818433), MRTX1257 (NSC819558), elimusertib (BAY 1895344; NSC800525), molibresib (GSK525762; NSC774829), temuterkib (LY3214996; NSC803410), venetoclax (NSC766270), alisertib (NSC759677), olaparib (NSC753686), talazoparib (NSC767125), erdafitinib (NSC781556), ipatasertib (NSC767898), cabozantinib (NSC761068), nintedanib (NSC756659), abemaciclib (NSC768073), docetaxel (NSC628503), trametinib (NSC758246), and sapanisertib (NSC764658) were obtained from the National Cancer Institute (NCI) Developmental Therapeutics Program Chemical Repository. The FDA-approved anticancer drug set is available from the Developmental Therapeutics Program. […] The stock solutions were prepared in dimethyl sulfoxide (DMSO, Sigma-Aldrich, St. Louis, MO, cat. D2650) at 800-fold the tested concentration and stored at -70 degrees C prior to their use. All drugs and investigational agents were tested over a range starting from a high concentration at or near the clinical Cmax and decreasing in half-log increments. If the clinical Cmax for an agent had not been determined, the highest concentration tested was 10 microM.
Cell Culture. All cells were maintained in an incubator at 37 degrees C and 5% CO2 with 95% humidity. The PDC lines were cultured according to standard operating procedures established by the NCI PDMR (https://pdmr.cancer.gov/sops/default.htm). Briefly, all PDCs were thawed and cultured in Matrigel-coated flasks prepared with a working solution of 1X Ham's F-12 nutrient mix, without supplementation (Invitrogen, Waltham, MA, cat. 11765054), 100 U/mL penicillin-streptomycin (Invitrogen, cat. 15140122), and 2.5% Matrigel (Corning Inc., Corning, NY, cat. 354248) for the first three passages. All PDCs were cultured in complete DMEM/F-12 media containing advanced DMEM/F-12 (Invitrogen, cat. 12634028), 4.9% defined fetal bovine serum, heat inactivated (HyClone Laboratories Inc., Logan, UT, cat. SH30070.03HI), 389 ng/mL hydrocortisone (Sigma-Aldrich, cat. H4001), 9.7 ng/mL human EGF recombinant protein (Invitrogen, cat. PHG0313), 23.4 microg/mL adenine (Sigma-Aldrich, cat. A2786), 97.3 U/mL penicillin-streptomycin (Invitrogen, cat. 15140122), 1.9 mM L-glutamine (Invitrogen, cat. 25030081), and 9.7 microM Y-27632 dihydrochloride (Tocris Bioscience, Bristol, United Kingdom, cat. 1254). The PDCs were cultured in complete DMEM/F12 media without 9.7 microM Y-27632 dihydrochloride for at least two passages prior to the screen. The established cell line HOP-62 was cultured in RPMI 1640 medium, HEPES (Invitrogen, cat. 22400105) with 10% defined fetal bovine serum (HyClone Laboratories Inc., cat. SH30070.03) and 2 mM L-glutamine (Invitrogen, cat. 25030081). The pooled donor HUVEC were cultured in endothelial cell growth medium 2 (PromoCell, Heidelberg, Germany, cat. C-22011) and the hMSC were cultured in mesenchymal stem cell growth medium 2 (PromoCell, cat. C-28009). For all experiments, HUVEC and hMSC were used at passages </=5, while the malignant cell lines were used at passages </=15. […]

The mark [1] stands for this setting: compound alone, run of 09/02/2021.

Consider 16 compounds from PubChem BioAssay AID1963864 (Molecular Pharmacology Branch, DTP, NCI, 2024).

“And” between values parts separate entries of the source, which are not always exact repeats. Equal values may be shown once.
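Note: drug exposure lasted seven days.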
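Throughout, for viability, T/C: 100% = DMSO vehicle wells and lower means fewer viable cells.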

As to `C=CC(=O)N1CCN(c2nc(OCC3CCCN3C)nc3c2CCN(c2cccc4cccc(C)c24)C3)CC1CC#N` (centres undefined), the viability, T/C is 91.1% [middle of 16 runs] (compound 0.0316 µM) and 94.9% [middle of 16 runs] (compound 0.1 µM). For the same compound, the half-maximal inhibitory concentration (IC50) under setting [1] was 2.01 µM [middle of 5 runs].
Regarding `CC(=O)Nc1cccc(-n2c(=O)n(C3CC3)c(=O)c3c(Nc4ccc(I)cc4F)n(C)c(=O)c(C)c32)c1`, the viability, T/C reads like this: (compound 0.0001 µM) 95.7% [middle of 5 runs]; (compound 0.000316 µM) 99.3% [middle of 5 runs]; (compound 0.00316 µM) 85.6% [middle of 5 runs]; (compound 0.01 µM) 72.2% [middle of 5 runs]; (compound 0.0316 µM) 44% [middle of 5 runs].
Consider `CC(=O)OC12COC1CC(O)C1(C)C(=O)C(O)C3=C(C)C(OC(=O)C(O)C(NC(=O)OC(C)(C)C)c4ccccc4)CC(O)(C(OC(=O)c4ccccc4)C21)C3(C)C` (centres undefined), for which the viability, T/C by setting is: (compound 0.01 µM) 87.1% [middle of 5 runs]; (compound 0.0316 µM) 77.4% [middle of 5 runs]; (compound 0.1 µM) 73.6% [middle of 5 runs]; (compound 0.316 µM) 86.8% [middle of 5 runs]; (compound 1 µM) 101% [middle of 5 runs]; (compound 3.16 µM) 119% [middle of 5 runs]. For the same compound, under “curve of compound”, the IC50 was greater than 3.16 µM.
With `CC(C)NCC(C(=O)N1CCN(c2ncnc3c2C(C)CC3O)CC1)c1ccc(Cl)cc1` (centres undefined), the viability, T/C (compound 0.0316 µM) is 94.6% [middle of 5 runs]; the viability, T/C (compound 0.1 µM) is 85.2% [middle of 5 runs]; the viability, T/C (compound 0.316 µM) was 83.1% [middle of 5 runs]; the viability, T/C (compound 1 µM) is 77% [middle of 5 runs]; the viability, T/C (compound 3.16 µM) was 76.1% [middle of 5 runs]; the viability, T/C (compound 10 µM) is 70.1% [middle of 5 runs]. Also, the concentration for half-maximal inhibition (IC50) (curve of compound) was greater than 10 µM.
As to `CC(C)n1nc(-c2ccc3oc(N)nc3c2)c2c(N)ncnc21`, the viability, T/C is, setting by setting: (compound 0.000316 µM) 91.3% [middle of 5 runs]; (compound 0.001 µM) 91.3% [middle of 5 runs]; (compound 0.00316 µM) 82.9% [middle of 5 runs]; (compound 0.01 µM) 74.3% [middle of 5 runs]; (compound 0.0316 µM) 67.2% [middle of 5 runs]; (compound 0.1 µM) 50.7% [middle of 5 runs]. The 50% inhibitory concentration (IC50) (curve of compound) is > 0.1 µM and 0.0957 µM.
Consider `CC1(C)CCC(CN2CCN(c3ccc(C(=O)NS(=O)(=O)c4ccc(NCC5CCOCC5)c([N+](=O)[O-])c4)c(Oc4cnc5[nH]ccc5c4)c3)CC2)=C(c2ccc(Cl)cc2)C1`, for which the viability, T/C reads like this: (compound 0.0316 µM) 96.5% [middle of 5 runs]; (compound 0.1 µM) 96.3% [middle of 5 runs]; (compound 0.316 µM) 90.6% [middle of 5 runs]; (compound 1 µM) 97.9% [middle of 5 runs].
As to `CC1COCCN1c1cc(-c2ccnn2C)c2ccnc(-c3ccn[nH]3)c2n1` (centres undefined), the viability, T/C by setting is: (compound 0.01 µM) 99.8% [middle of 5 runs]; (compound 0.0316 µM) 90.3% [middle of 5 runs]; (compound 0.1 µM) 83.4% [middle of 5 runs]; (compound 0.316 µM) 78.2% [middle of 5 runs]; (compound 1 µM) 84.7% [middle of 5 runs]; (compound 3.16 µM) 86.6% [middle of 5 runs]. Moreover, where the note is “curve of compound”, the IC50 was greater than 3.16 µM.
Take `CC1OCC2(CCN(c3cnc(Sc4ccnc(N)c4Cl)c(N)n3)CC2)C1N` (centres undefined): the viability, T/C reads like this: (compound 0.0316 µM) 97.6% [middle of 4 runs]; (compound 0.316 µM) 86.6% [middle of 19 runs]. Besides, the concentration for half-maximal inhibition (IC50) is, setting by setting: (compound alone, run of 08/19/2021) greater than 10 µM; (compound alone, run of 08/26/2021) greater than 10 µM; under setting [1], greater than 10 µM; (curve of compound) greater than 10 µM.
`CCN1CCN(Cc2ccc(Nc3ncc(F)c(-c4cc(F)c5nc(C)n(C(C)C)c5c4)n3)nc2)CC1`: the viability, T/C runs as follows: (compound 0.00316 µM) 101% [middle of 5 runs]; (compound 0.01 µM) 86.9% [middle of 5 runs]; (compound 0.0316 µM) 85.5% [middle of 5 runs]; (compound 0.1 µM) 81.5% [middle of 5 runs]; (compound 0.316 µM) 88.2% [middle of 5 runs]; (compound 1 µM) 95.5% [middle of 5 runs]. In addition, the IC50 (curve of compound) was greater than 1 µM.
With `CCNC(=O)CC1N=C(c2ccc(Cl)cc2)c2cc(OC)ccc2-n2c(C)nnc21` (centres undefined), the viability, T/C by setting is: (compound 0.0316 µM) 96.8% [middle of 5 runs]; (compound 0.1 µM) 90.3% [middle of 5 runs]; (compound 0.316 µM) 84.9% [middle of 5 runs]; (compound 3.16 µM) 79.8% [middle of 5 runs]; (compound 10 µM) 79.4% [middle of 5 runs]. Besides, the half-maximal inhibitory concentration (IC50) (curve of compound) is greater than 10 µM.
On to `CN(C)C/C=C/C(=O)Nc1cc2c(Nc3ccc(F)c(Cl)c3)ncnc2cc1O[C@H]1CCOC1`, for which the viability, T/C was 93.6% [middle of 5 runs] (compound 0.000316 µM); 82.4% [middle of 5 runs] (compound 0.001 µM); 81.6% [middle of 5 runs] (compound 0.00316 µM); 68.3% [middle of 5 runs] (compound 0.01 µM); 62.6% [middle of 5 runs] (compound 0.0316 µM); 63.5% [middle of 5 runs] (compound 0.1 µM). Also, the 50% inhibitory concentration (IC50) (curve of compound) was greater than 0.1 µM.
For the compound `COc1cc(Nc2ncc3c(n2)-c2ccc(Cl)cc2C(c2c(F)cccc2OC)=NC3)ccc1C(=O)O`, the viability, T/C reads like this: (compound 0.0316 µM) 93.8% [middle of 5 runs]; (compound 0.1 µM) 90.8% [middle of 5 runs]; (compound 0.316 µM) 96.9% [middle of 5 runs]; (compound 1 µM) 90.7% [middle of 5 runs]. Also, the half-inhibitory concentration (IC50) (curve of compound) is greater than 10 µM.
Consider `COc1cc(OC)cc(N(CCNC(C)C)c2ccc3ncc(-c4cnn(C)c4)nc3c2)c1`, for which the viability, T/C (compound 0.0316 µM) was 96% [middle of 4 runs]; the viability, T/C (compound 0.1 µM) is 96.3% [middle of 4 runs]; the viability, T/C (compound 0.316 µM) is 96.1% [middle of 4 runs]; the viability, T/C (compound 1 µM) was 94% [middle of 4 runs]; the viability, T/C (compound 3.16 µM) is 110% [middle of 4 runs]; the viability, T/C (compound 10 µM) was 7.96% [middle of 4 runs]. Further, the 50% inhibitory concentration (IC50) (curve of compound) is 5.96 µM [middle of 4 runs].
On to `Cn1nccc1Nc1nccc(-c2cc3c(s2)C(C)(C)N(CCN2CCOCC2)C3=O)n1`, for which the viability, T/C (compound 0.0316 µM) was 109% and 83.6%; the viability, T/C (compound 0.1 µM) is 112% and 98.5%; the viability, T/C (compound 0.316 µM) is 123% and 98.7%; the viability, T/C (compound 1 µM) is 105% and 91.8%; the viability, T/C (compound 3.16 µM) is 85.4% and 76%; the viability, T/C (compound 10 µM) is 73.7% and 66.2%. For the same compound, the half-maximal inhibitory concentration (IC50) (curve of compound) was greater than 10 µM.
With `Cn1ncnc1[C@H]1c2n[nH]c(=O)c3cc(F)cc(c23)N[C@@H]1c1ccc(F)cc1`, the viability, T/C was 91.8% [middle of 5 runs] (compound 0.000316 µM), 95.2% [middle of 5 runs] (compound 0.001 µM), 104% [middle of 5 runs] (compound 0.01 µM) and 89.8% [middle of 5 runs] (compound 0.1 µM). In addition, for the setting “curve of compound”, the IC50 is greater than 0.1 µM.
Turning to `O=C(c1cc(Cc2n[nH]c(=O)c3ccccc23)ccc1F)N1CCN(C(=O)C2CC2)CC1`, the viability, T/C runs as follows: (compound 0.0316 µM) 89.9% [middle of 5 runs]; (compound 0.316 µM) 86.2% [middle of 5 runs]; (compound 3.16 µM) 78.3% [middle of 5 runs]. In addition, the IC50 (curve of compound) was greater than 10 µM.

The viability, T/C is the result in the treated group divided by that in the control group, in per cent. One may read the IC50 as the concentration at which inhibition is half-maximal.
